Experimental data published in ChEMBL document CHEMBL1148413, “5-Fluorinated L-lysine analogues as selective induced nitric oxide synthase inhibitors” (J Med Chem, 2004).

How the values were obtained:
[1] = molecular target: T1, Nitric oxide synthase 1 (Homo sapiens, UniProt P29475); assay: Selectivity for Neuronal nitric oxide synthase over inducible nitric oxide synthase
[2] = molecular target: T1, Nitric oxide synthase 1; assay: Inhibition concentration against Neuronal nitric oxide synthase (nNOS) at 10 uM concentration
[3] = molecular target: T2, Nitric oxide synthase, inducible (Homo sapiens, UniProt P35228); assay: Inhibition concentration against Inducible nitric oxide synthase (iNOS) at 10 uM concentration
[4] = molecular target: T3, Nitric oxide synthase 3 (Homo sapiens) (UniProt P29474); assay: Selectivity for endothelial nitric oxide synthase over inducible nitric oxide synthase
T3 sequence (whole entry): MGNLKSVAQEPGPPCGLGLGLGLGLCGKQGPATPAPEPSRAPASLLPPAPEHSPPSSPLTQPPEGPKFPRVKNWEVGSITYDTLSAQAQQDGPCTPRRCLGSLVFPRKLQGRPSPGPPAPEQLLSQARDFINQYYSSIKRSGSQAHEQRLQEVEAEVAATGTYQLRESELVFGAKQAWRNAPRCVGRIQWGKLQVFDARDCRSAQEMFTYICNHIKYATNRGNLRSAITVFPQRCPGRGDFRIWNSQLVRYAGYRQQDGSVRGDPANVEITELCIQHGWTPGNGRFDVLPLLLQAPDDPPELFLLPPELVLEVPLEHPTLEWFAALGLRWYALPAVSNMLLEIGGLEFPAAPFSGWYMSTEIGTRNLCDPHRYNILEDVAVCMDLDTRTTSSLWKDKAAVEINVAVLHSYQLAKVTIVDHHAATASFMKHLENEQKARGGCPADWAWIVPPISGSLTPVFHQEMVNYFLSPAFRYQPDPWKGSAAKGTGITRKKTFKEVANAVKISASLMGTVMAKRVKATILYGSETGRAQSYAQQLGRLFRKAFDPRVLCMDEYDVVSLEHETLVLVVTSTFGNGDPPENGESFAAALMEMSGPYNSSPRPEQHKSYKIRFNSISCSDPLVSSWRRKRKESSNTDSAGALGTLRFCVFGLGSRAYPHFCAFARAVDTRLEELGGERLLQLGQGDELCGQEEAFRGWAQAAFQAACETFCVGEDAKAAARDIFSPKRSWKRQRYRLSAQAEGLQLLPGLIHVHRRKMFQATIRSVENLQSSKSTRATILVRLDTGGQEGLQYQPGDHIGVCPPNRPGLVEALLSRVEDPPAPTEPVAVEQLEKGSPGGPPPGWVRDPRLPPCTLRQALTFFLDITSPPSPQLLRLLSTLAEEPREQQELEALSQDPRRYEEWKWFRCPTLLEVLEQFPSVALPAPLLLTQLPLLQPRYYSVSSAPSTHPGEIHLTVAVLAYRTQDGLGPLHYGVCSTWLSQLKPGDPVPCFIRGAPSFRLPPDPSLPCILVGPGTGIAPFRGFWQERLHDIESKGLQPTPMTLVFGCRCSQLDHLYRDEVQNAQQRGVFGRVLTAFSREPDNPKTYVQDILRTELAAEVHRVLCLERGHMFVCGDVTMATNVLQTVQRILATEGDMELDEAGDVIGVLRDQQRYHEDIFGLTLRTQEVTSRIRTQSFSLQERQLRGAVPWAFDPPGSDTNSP

[5] = molecular target: T4, Nitric oxide synthase 3 (Homo sapiens, UniProt P29474); assay: (§1) Inhibition concentration against Endothelial nitric oxide synthase (eNOS) at 10 uM concentration
T4 sequence (P29474 whole entry): T3 sequence (whole entry)

[6] = molecular target: T1, Nitric oxide synthase 1; settings: 10 uM
[7] = molecular target: T2, Nitric oxide synthase, inducible; settings: 10 uM
[8] = molecular target: T4, Nitric oxide synthase 3; assay: Percent inhibition against Endothelial nitric oxide synthase (eNOS) at 10 uM concentration
[9] = molecular target: T3, Nitric oxide synthase 3 (Homo sapiens); assay: as §1

T2 sequence (P35228 whole entry): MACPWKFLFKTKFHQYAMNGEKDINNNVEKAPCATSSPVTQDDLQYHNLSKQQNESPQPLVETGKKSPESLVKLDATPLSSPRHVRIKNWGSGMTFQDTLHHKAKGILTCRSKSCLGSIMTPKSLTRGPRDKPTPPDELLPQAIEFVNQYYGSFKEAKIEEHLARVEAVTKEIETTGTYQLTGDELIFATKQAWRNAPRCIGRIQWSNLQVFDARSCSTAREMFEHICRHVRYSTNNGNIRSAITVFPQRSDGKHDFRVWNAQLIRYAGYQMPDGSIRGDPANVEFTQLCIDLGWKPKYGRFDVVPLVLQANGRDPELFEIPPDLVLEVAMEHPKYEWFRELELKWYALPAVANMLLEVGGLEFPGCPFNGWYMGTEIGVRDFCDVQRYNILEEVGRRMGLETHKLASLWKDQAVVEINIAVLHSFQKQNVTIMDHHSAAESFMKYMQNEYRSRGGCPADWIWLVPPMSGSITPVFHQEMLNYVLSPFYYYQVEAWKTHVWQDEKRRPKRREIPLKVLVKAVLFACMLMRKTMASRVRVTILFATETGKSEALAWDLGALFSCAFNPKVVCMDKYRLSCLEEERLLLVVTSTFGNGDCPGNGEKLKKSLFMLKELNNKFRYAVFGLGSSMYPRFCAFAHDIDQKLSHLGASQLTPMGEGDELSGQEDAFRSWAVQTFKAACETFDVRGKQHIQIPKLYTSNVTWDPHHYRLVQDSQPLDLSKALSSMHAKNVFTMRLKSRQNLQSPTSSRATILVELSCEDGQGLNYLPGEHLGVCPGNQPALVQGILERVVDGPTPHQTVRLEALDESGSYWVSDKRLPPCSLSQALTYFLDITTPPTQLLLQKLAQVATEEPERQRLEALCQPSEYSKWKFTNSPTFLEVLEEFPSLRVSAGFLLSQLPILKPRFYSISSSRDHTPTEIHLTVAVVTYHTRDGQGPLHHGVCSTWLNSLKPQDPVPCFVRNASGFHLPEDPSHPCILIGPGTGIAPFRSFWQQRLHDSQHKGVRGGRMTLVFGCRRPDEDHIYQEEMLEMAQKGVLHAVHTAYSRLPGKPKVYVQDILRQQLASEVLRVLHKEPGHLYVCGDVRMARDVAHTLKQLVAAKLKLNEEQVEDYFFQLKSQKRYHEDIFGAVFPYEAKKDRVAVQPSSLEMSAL
T1 sequence (P29475 whole entry): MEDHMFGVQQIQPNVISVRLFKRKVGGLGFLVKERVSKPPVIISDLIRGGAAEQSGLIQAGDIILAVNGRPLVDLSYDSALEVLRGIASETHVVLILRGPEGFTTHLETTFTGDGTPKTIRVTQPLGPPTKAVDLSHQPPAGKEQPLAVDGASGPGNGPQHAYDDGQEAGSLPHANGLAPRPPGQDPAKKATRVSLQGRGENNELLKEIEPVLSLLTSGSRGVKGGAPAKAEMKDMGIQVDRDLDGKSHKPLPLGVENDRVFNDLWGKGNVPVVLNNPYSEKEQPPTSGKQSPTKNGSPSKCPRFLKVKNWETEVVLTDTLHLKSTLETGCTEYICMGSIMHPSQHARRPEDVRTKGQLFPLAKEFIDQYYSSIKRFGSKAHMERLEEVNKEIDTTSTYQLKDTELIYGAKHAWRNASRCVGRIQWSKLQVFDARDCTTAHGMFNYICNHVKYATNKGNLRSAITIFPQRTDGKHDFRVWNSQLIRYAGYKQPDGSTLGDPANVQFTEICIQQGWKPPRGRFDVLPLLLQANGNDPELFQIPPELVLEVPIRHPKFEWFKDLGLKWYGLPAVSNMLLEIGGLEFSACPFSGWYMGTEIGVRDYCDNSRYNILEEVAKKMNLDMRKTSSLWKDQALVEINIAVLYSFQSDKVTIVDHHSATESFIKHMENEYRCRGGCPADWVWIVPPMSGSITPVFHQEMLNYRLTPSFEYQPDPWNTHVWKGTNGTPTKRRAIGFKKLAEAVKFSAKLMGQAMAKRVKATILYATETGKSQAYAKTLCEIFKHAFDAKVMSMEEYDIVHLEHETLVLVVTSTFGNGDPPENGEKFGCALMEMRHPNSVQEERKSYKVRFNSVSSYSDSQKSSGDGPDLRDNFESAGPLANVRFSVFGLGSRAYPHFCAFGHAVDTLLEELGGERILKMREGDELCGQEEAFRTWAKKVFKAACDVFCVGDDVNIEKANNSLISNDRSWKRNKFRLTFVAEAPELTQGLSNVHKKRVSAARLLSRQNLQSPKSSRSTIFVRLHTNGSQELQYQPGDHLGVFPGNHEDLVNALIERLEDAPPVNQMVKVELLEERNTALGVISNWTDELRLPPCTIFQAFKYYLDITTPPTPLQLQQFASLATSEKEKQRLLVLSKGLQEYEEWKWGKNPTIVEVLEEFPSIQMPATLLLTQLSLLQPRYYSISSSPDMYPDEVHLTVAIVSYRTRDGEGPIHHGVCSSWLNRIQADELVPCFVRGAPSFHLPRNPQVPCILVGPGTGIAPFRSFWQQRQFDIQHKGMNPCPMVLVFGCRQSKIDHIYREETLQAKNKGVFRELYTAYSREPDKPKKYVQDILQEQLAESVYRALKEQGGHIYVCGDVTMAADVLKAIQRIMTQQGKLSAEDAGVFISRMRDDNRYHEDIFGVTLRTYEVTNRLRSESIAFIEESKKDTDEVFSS

| Structure (SMILES) | Selectivity [1] | IC50 [2] | IC50 [3] | Selectivity [4] | IC50 [5] | inhibition [6] | inhibition [7] | Inhibition [8] | inhibition [9] |
| --- | --- | --- | --- | --- | --- | --- | --- | --- | --- |
| CC(=N)NC[C@@H](F)CC[C@@H](N)C(=O)O | 7 | 311 µM | 47.8 µM | 8 | 374 µM |  |  |  |  |
| CC(=N)NCC(F)(F)CC[C@H](N)C(=O)O | 4 | 33.8 µM | 8.75 µM | 7 | 57.5 µM |  |  |  |  |
| CC(=N)NC[C@H](F)CC[C@H](N)C(=O)O |  |  |  |  |  | 0% | 4% | 28.2% |  |
| CC(=N)NC[C@H](F)CC[C@@H](N)C(=O)O |  |  |  |  |  | 18% | 8.9% |  | 6.52% |
| CC(=N)NC[C@@H](F)CC[C@H](N)C(=O)O | 9 | 21.7 µM | 2.36 µM | 34 | 81 µM |  |  |  |  |
| CC(=N)NCC(F)(F)CCC(N)C(=O)O (centres undefined) | 7 | 140 µM | 21.4 µM | 7 | 139 µM |  |  |  |  |
| CC(=N)NCC(F)CCC(N)C(=O)O (centres undefined) | 9 | 70.4 µM | 7.84 µM | 23 | 182 µM |  |  |  |  |
| CC(=N)NCCCC[C@H](N)C(=O)O [L-NIL] | 7 |  | 4.9 µM | 28 |  |  |  |  |  |
